Legend:
[1] = Analytical RP-HPLC retention time as a measure of peptide hydrophobicity; assay type: physicochemical; conditions: RP-HPLC at 25 °C, Zorbax 300 SB-C8 column, linear AB gradient, A 0.1% aqueous TFA, B 0.1% TFA in acetonitrile, 1 mL/min, detection at 210 nm
Method: Among substitutions, the retention times ranged from 32.2 min (peptide V16K) to 40.4 min (peptide V16L), which reflect the pure effects of single amino acid substitutions. Thus, the retention times of peptides reflect the relative hydrophobicity of side chains. Consistent with previous studies, the hydrophobicity of peptide analogs was generally in the following order: Lys < Gly < Ser < Ala < Val < Leu. Glu-substituted peptide was an exception, as it contains a negatively-charged side chain and this should decrease the hydrophobicity of the peptide dramatically.
Peptides were analyzed on a Shimadzu LC-20A HPLC using a Zorbax 300 SB-C8 column (150 ° 4.6 mm i.d., 5 μm particle size, 300 Å pore size) from Agilent Technologies using a linear AB gradient and a flow rate of 1 mL/min, where solvents A and B were as described above. Absorbance signals of peptides were detected at 210 nm.

[2] = CD spectroscopy, helicity in benign buffer and in 50% TFE; assay type: physicochemical; conditions: for [θ]222, mean residue molar ellipticity, benign / [θ]222, mean residue molar ellipticity, 50% TFE: CD at 222 nm, peptide 75 μM; for [θ]222, mean residue molar ellipticity, benign / [θ]222, mean residue molar ellipticity, 50% TFE / % helix, 50% TFE: 25 °C; for [θ]222, mean residue molar ellipticity, benign: KP buffer (100 mM KCl, 50 mM K2HPO4/KH2PO4, pH 7.0); for [θ]222, mean residue molar ellipticity, 50% TFE / % helix, 50% TFE: KP buffer diluted 1:1 (v/v) with TFE; for % helix, 50% TFE / % helix, benign: relative to the molar ellipticity of peptide V16E in 50% TFE; for % helix, benign: KP buffer pH 7.0, 25 °C
Method: The secondary structures of peptides were determined in benign buffer and in a hydrophobic environment (50% trifluoroethanol, TFE) to mimic the hydrophobic environment of the membrane. […] The principle of side chain interaction at the i to i + 3 and i to i + 4 positions has been used to promote α-helix stability, for example, the incorporation of Lys and Glu residues to stabilize electrostatic attractions. Thus, the helicity of peptide V16E in the presence of 50% TFE that presented the greatest value among all analogs should rely on the contribution of the electrostatic attraction of the side chain of K13 and E16, which stabilizes the helix. The relative helicity is 100% for peptide V16E in 50% TFE, showing the importance of the salt bridges of K13 and E16 to stabilize the helical structure. In general, subtle side-chain alterations by single amino acid substitutions made no significant changes on secondary structures both in aqueous and in hydrophobic environments (Table 2).
Circular dichroism spectra were measured with a 0.02 cm path length quartz cuvette on a Jasco J-810 spectropolarimeter (Jasco, Tokyo, Japan) at 25 °C. Data were collected from 250 to 190 nm at a sensitivity of 100 millidegrees, response time of 1 s, bandwidth of 1.0 nm and a scan speed of 100 nm/min. Peptides were measured at a concentration of 75 μM in a benign buffer (50 mM KH2PO4/K2HPO4, 100 mM KCl, pH 7) or the benign buffer mixed with 50% 2,2,2-trifluoroethanol (TFE). The mean residue molar ellipticities were calculated using the equation [θ] = θ/10lcMn, where θ is the ellipticity in millidegrees, l is the optical path length of the cuvette in centimeters, cM is the peptide concentration in mole/liter and n is the number of residues in the peptide.

P. aeruginosa H188 = assay type: cell-based; conditions: H188, 24 h
Method: (§1) Minimal inhibitory concentrations (MIC) were determined using a broth dilution method. Briefly, bacteria were grown overnight at 37 °C in Mueller–Hinton (MH) Broth, diluted in the same medium and transferred into 96-well microtiter plates (90 μL/well). Peptides were serially diluted using 0.2% bovine serum albumin containing 0.01% acetic acid and added to the microtiter plates in a volume of 10 μL per well to give a final concentration of 5 × 10^5 CFU/mL. MICs were defined as the lowest peptide concentration that inhibited bacterial growth after incubation for 24 h at 37 °C.

E. coli ATCC25922 = assay type: cell-based; conditions: ATCC25922, 24 h
Method: as §1

P. aeruginosa ATCC27853 = assay type: cell-based; conditions: ATCC27853, 24 h
Method: as §1

E. coli Clinical Isolate = assay type: cell-based; conditions: Clinical Isolate, 24 h
Method: as §1

[3] = Tryptophan fluorescence in HEPES buffer; assay type: physicochemical; conditions: peptide 2 μM, excitation 280 nm
Source text: (§2) Upon peptide diffusion into the cytoplasmic membrane, evidence of selective interaction between peptides with bacterial versus mammalian cytoplasmic membrane was illustrated by the binding events of the peptides to anionic or zwitterionic lipid vesicles. The repositioning of the tryptophan indole group in an environment of reduced polarity upon membrane binding results in a blue shift in the fluorescence excitation maximum coupled with an enhancement of emission intensity. Lipid/peptide (L/P) ratios were maintained high enough at low peptide concentration (2 μM) in order to mimic the initial steps of peptide-membrane binding. The spectra were recorded as shown in Supplementary Figure S1. […] The significant blue shifts of Δλmax (17 to 23 nm) for all peptides upon exposure to PC/PG vesicles indicated a membrane partition state of Trp in negatively charged vesicles containing 30% anionic lipids (PG).
(§3) Fluorescence emission spectra of peptide Trp residues were monitored by a Shimadzu RF-5301 spectrofluorometer. The excitation of wavelength was set as 280 nm and the emission spectra of each peptide, with or without lipid vesicles, were recorded between 300 and 450 nm. Thus three curves were recorded for each peptide, in HEPES buffer or with either PC/PG vesicles or PC/cholesterol vesicles. The blue shift of Trp residues in vesicles were referred to in buffer condition. The final concentrations of peptide and lipid were 2 μM and 100 μM (1/50), respectively.

E. coli DH5α = assay: MIC by broth dilution; assay type: cell-based; conditions: MH broth, 5 × 10^5 CFU/mL, 24 h at 37 °C
Method: as §1

[4] = Tryptophan fluorescence, binding to lipid vesicles; conditions: for Tryptophan fluorescence emission maximum: excitation 280 nm
Method: as §2, with “The repositioning of the tryptophan indole group in an environment of reduced polarity upon membrane binding results in a blue shift in the fluorescence excitation maximum coupled with an enhancement of emission intensity.” left out
Unilamellar vesicles were prepared by a standard procedure with either PC/PG (7:3, w/w) or PC/cholesterol (8:1, w/w) as described previously. Briefly, the desired mixtures of lipids were dissolved in a chloroform/methanol mixture (2:1, v/v), dried under nitrogen and then lyophilized for 24 h to remove traces of organic solvent. Dry lipid films were suspended in 10 mM HEPES buffer containing 150 mM NaCl (pH 7.4) by vortex mixing. After five freeze-thawing cycles, the suspension was extruded 15 times through double polycarbonate membranes with 0.1 μm diameter pores on an Avanti mini-extruder apparatus. The lipid concentration was determined by phosphorus analysis as previously reported.
as §3

[5] = PC/PG (7:3, w/w) vesicles versus HEPES buffer, lipid:peptide 50:1, peptide 2 μM
[6] = PC/PG (7:3, w/w) vesicles, lipid and peptide in a molar ratio of 50:1, peptide 2 μM, lipid 100 μM
[7] = PC/cholesterol (8:1, w/w) vesicles versus HEPES buffer, peptide 2 μM, lipid 100 μM
[8] = PC/cholesterol (8:1, w/w) vesicles, peptide 2 μM, lipid 100 μM

Substance	tR, retention time during RP-HPLC (relative hydrophobicity) [1]	[θ]222, mean residue molar ellipticity, benign [2]	[θ]222, mean residue molar ellipticity, 50% TFE [2]	% helix, 50% TFE [2]	% helix, benign [2]	MIC (P. aeruginosa H188)	MIC (E. coli ATCC25922)	MIC (P. aeruginosa ATCC27853)	MIC (E. coli Clinical Isolate)	Tryptophan fluorescence emission maximum [3]	MIC (E. coli DH5α)	Blue shift in emission maximum [4, 5]	Tryptophan fluorescence emission maximum [4, 6]	Blue shift in emission maximum [4, 7]	Tryptophan fluorescence emission maximum [4, 8]
Ac-KWKSFLKTFKSAKKTSLHTALKAISS-NH2 [Peptide V16S]	34.3 min	−1,760 degree·cm^2·dmol^−^1	−28,949 degree·cm^2·dmol^−^1	96.3%	5.9%	4 µg/mL	8 µg/mL	32 µg/mL	16 µg/mL	350 nm	8 µg/mL	22 nm	328 nm	1 nm	349 nm
Ac-KWKSFLKTFKSAKKTELHTALKAISS-NH2 [Peptide V16E]	34.6 min	−3,465 degree·cm^2·dmol^−^1	−30,063 degree·cm^2·dmol^−^1	100%	11.5%	64 µg/mL	16 µg/mL	125 µg/mL	125 µg/mL	350 nm	64 µg/mL	17 nm	333 nm	1 nm	349 nm
Ac-KWKSFLKTFKSAKKTLLHTALKAISS-NH2 [Peptide V16L]	40.4 min	−3,595 degree·cm^2·dmol^−^1	−29,803 degree·cm^2·dmol^−^1	99.1%	12.0%	2 µg/mL	1 µg/mL	2 µg/mL	1 µg/mL	350 nm	4 µg/mL	23 nm	326 nm	2 nm	348 nm
Ac-KWKSFLKTFKSAKKTGLHTALKAISS-NH2 [Peptide V16G]	33.6 min	−2,839 degree·cm^2·dmol^−^1	−27,857 degree·cm^2·dmol^−^1	92.7%	9.4%	8 µg/mL	8 µg/mL	32 µg/mL	16 µg/mL	350 nm	8 µg/mL	21 nm	329 nm	1 nm	349 nm
Ac-KWKSFLKTFKSAKKTALHTALKAISS-NH2 [Peptide V16A]	36.6 min	−3,057 degree·cm^2·dmol^−^1	−28,769 degree·cm^2·dmol^−^1	95.7%	10.2%	4 µg/mL	2 µg/mL	4 µg/mL	1 µg/mL	350 nm	4 µg/mL	22 nm	328 nm	1 nm	349 nm

— publication PMC6271477, “Effects of Single Amino Acid Substitution on the Biophysical Properties and Biological Activities of an Amphipathic α-Helical Antibacterial Peptide Against Gram-Negative Bacteria” (Molecules, 2014)
